Experimental data from patent US20100003217A1, “Compounds and Pharmaceutical Compositions for the Treatment of Viral Infections” (priority 2008, published 2010).
Several values for one entry are separate records, joined by “and”; a condition that tells them apart may be missing. Equal values may be shown once.

Assays:
[1] = Incubation with rat liver cytosol; assay type: in vitro ADME; conditions: rat cytosol 1 mg/mL, 2 hours, 10 μM
Description: (§1) Pooled liver cytosol (1.0 mg protein/mL) suspended in incubation buffer (0.1 M potassium phosphate, pH 7.4) was incubated for 2 hours at 37° C. with 10 μM Compound 1 from a stock solution in DMSO (final DMSO concentration was 0.1%); reaction was initiated with the addition of test article. Incubations with no protein served as control. Reactions were terminated by the addition of 0.1 mL of stop solution (acetonitrile). The samples were vortex-mixed for 30 sec and then centrifuged at 10,000×g for 10 min. The supernatant was dried using a Labconco CentriVap concentrator and the dry residue reconstituted in water, transferred to an HPLC glass vial and analyzed by HPLC-UV method 2 (described above).
(§2) Metabolic stability of the proposed metabolites was conducted by incubating the chemically synthesized standards Compound 2, Compound 4 and Compound 3 as described above for Compound 1. When possible, formation of Compound 5 was verified by incubating samples with alkaline phosphatase (10 U) for 60 min at 37° C.

[2] = Incubation with monkey liver cytosol; assay type: in vitro ADME; conditions: monkey cytosol 1 mg/mL, 2 hours, 10 μM
Description: as §1, §2

[3] = Metabolite profile in rat urine; assay type: in vivo, male Sprague-Dawley rats; conditions: for Percent of Dose, Urine 0-24 h: after [14C]Compound 1; for % AD, estimated: from single animal HPLC distribution and mean % AD; for Total % AD, estimated / Total % AD: total of all collections; for % of total urinary excretion / Total % AD: group 1C (IV dose) urine; for urinary component, % of the administered dose (% AD) / urinary component, estimated % of the administered dose (% AD): 0-24 h; for urinary component, % of the administered dose (% AD): 50 mg/kg
Description: Pooled urine samples were prepared for Groups 1C and 2C by mixing a fixed percent of the total volume for all four animals from the selected time points. For Group 1C, samples of the 1-, 2-, 6-, and 24-h collection intervals were pooled. For Group 2C, a pool of samples from all four animals was prepared for the 24 h collection intervals only. For 1-, 2-, and 6 h collection intervals, a urine sample of a single animal of Group 2A or 2B was used for analysis. All samples were brought to room temperature and vortexed briefly. The samples were diluted as necessary (2- to 20-fold) with appropriate aqueous mobile phase for the selected HPLC method. The pooled and diluted samples from the 24 h collection interval were centrifuged at 2040×g for 10 minutes. All other samples were analyzed without centrifugation. HPLC method 1 was used for HPLC profiling. Selected samples were analyzed by HPLC method 2 for comparison with the metabolite profile generated by microsomal and hepatocyte incubations (Examples 14 and 15) and with the metabolite profile of liver extracts.
Percent of the administered dose (% AD) for parent drug and each metabolite at each collection period=(% of the total radioactivity in the sample attributed to the metabolite)*(total radioactivity expressed as % of the administered dose, recovered during the corresponding collection period).
HPLC analyses of pooled urine samples of all time points were conducted for Group 1C. Metabolites R1, R2, R3, R4, R5, R6, R7 and R8 were characterized based on retention time.
For the PO dose group, a pooled urine sample from the 24-h collection time was analyzed. For 1-, 2-, and 6-h collection times, the majority of the samples had been used for radioanalysis. The remaining samples were insufficient for proportional pooling. Therefore, single animal samples of […] groups were used for HPLC profiling. Metabolites R^1, R^2, R^3, R^4, R^5, R^6, R^7 and R^8 were characterized based on retention time.
Table 50 contains data from single animal samples and pooled samples. To estimate overall distribution of urinary metabolites, it was assumed that the profile from a single animal is reflective of the overall average metabolite profile. Therefore, HPLC distribution data from single animals was used to calculate the percentage of administered dose excreted as various metabolites during the 1-, 2-, and 6-h collection intervals. Metabolites R1, R2, R3, R4, R5, R6, R7 and R8 were characterized based on retention time.

[4] = PO dose urine, 2 h collection, single animal (#20, Group 2B)
[5] = estimated profile, group 2C (PO dose) urine
[6] = estimated profile, group 2C (PO dose) urine, 2 h
[7] = estimated profile, group 2C (PO dose) urine, 2 h, single animal % HPLC distribution
[8] = group 1C (IV dose) pooled urine, 1 h collection
[9] = group 1C (IV dose) pooled urine, 2 h collection
[10] = group 1C (IV dose) pooled urine, 6 h collection
[11] = group 1C (IV dose) pooled urine, 24 h collection
[12] = PO dose urine, 1 h collection, single animal (#15, Group 2A)
[13] = estimated profile table, group 2C (PO dose) urine, 24 h
[14] = estimated profile, group 2C (PO dose) urine, 1 h
[15] = estimated profile, group 2C (PO dose) urine, 1 h, single animal % HPLC distribution
[16] = group 2C (PO dose) pooled urine, 24 h collection
[17] = PO dose urine, 6 h collection, single animal (#20, Group 2B)

Compound	Residual compound following incubation with liver cytosol [1]	Residual compound following incubation with liver cytosol [2]	Percent of Dose, Urine 0-24 h ([3]; IV)	Percent of Dose, Urine 0-24 h ([3]; Oral)	% AD (percent of administered dose) [3, 4]	% HPLC (percent of HPLC peak area in the sample extract) [3, 4]	% of total urinary excretion, estimated [3, 5]	% AD, estimated [3, 6]	% HPLC (percent of HPLC peak area in the sample extract) [3, 7]	Total % AD, estimated [3, 5]	% AD (percent of administered dose) [3, 8]	% HPLC (percent of HPLC peak area in the sample extract) [3, 8]	% AD (percent of administered dose) [3, 9]	% HPLC (percent of HPLC peak area in the sample extract) [3, 9]	% AD (percent of administered dose) [3, 10]	% HPLC (percent of HPLC peak area in the sample extract) [3, 10]	% AD (percent of administered dose) [3, 11]	% HPLC (percent of HPLC peak area in the sample extract) [3, 11]	% of total urinary excretion [3]	Total % AD [3]	also measured
C[C@@]1(O)[C@H](O)[C@@H](COP(=O)(O)NCc2ccccc2)O[C@H]1n1cnc2c(=O)[nH]c(N)nc21 [Compound 2, [(2R)-2-methyl-β-D-ribofuranosyl]guanine-N-benzylaminyl-5′-monophosphate]	0%	0%	0.76% of Dose	0.001% of Dose	0.002 % AD	1.81%	0.03%	0.001 % AD	1.81%	0.001 % AD	0.52 % AD	2.29%	0.13 % AD	2.57%	0.03 % AD	1.40%	0.07 % AD	0.45%	1.62%	0.76 % AD	–
CC(C)(CO)C(=O)SCCOP(N)(=O)OC[C@H]1O[C@@H](n2cnc3c(=O)[nH]c(N)nc32)[C@](C)(O)[C@@H]1O (mixture of isomers) [Compound 3, {9-[(2R)2-C-methyl-β-D-ribo-furanosyl]-guanin}-5′-yl-O-(hydroxy-tert-butyl-S-acyl-2-thioethyl) phosphoramidate]	96%	99%	–	–	–	–	–	–	–	–	–	–	–	–	–	–	–	–	–	–	–
CC(C)(CO)C(=O)SCCOP(=O)(NCc1ccccc1)OC[C@H]1O[C@@H](n2cnc3c(=O)[nH]c(N)nc32)[C@](C)(O)[C@@H]1O (mixture of isomers) [Compound 1, 3-hydroxy-2,2-dimethyl-thiopropionic acid S-(2-{[(2R,3R,4R,5R)-5-(2-amino-6-oxo-1,6-dihydro-purin-9-yl)-3,4-dihydroxy-4-methyl-tetrahydro-furan-2-ylmethoxy]-benzylamino-phosphoryloxy}-ethyl) ester]	100%	100%	26.1% of Dose	0.02% of Dose	0.01 % AD	6.57%	0.73%	0.003 % AD	6.57%	0.02 % AD	21.39 % AD	93.5%	2.50 % AD	48.9%	0.71 % AD	30.5%	1.51 % AD	9.09%	55.6%	26.1 % AD	Total excretion (% AD), urine ([3]; IV (1C)): 26.1 % AD; Total excretion (% AD), urine ([3]; PO (2C), urine data estimated): 0.02 % AD; % AD (percent of administered dose) [3, 12]: 0.06 % AD; % HPLC (percent of HPLC peak area in the sample extract) [3, 12]: 74.8%; % AD [3, 13]: 0.01 % AD; % HPLC (percent of HPLC peak area in the sample extract) [3, 13]: 0.30%; % AD, estimated [3, 14]: 0.01 % AD; % HPLC (percent of HPLC peak area in the sample extract) [3, 15]: 74.8%; % AD (percent of administered dose) [3, 16]: 0.01 % AD; % HPLC (percent of HPLC peak area in the sample extract) [3, 16]: 0.30%; % of the total urinary excretion ([3]; rat urine, IV dose 50 mg/kg): 55.6%; urinary component, % of the administered dose (% AD) ([3]; rat urine, IV dose 50 mg/kg): 26.1 % AD and 26 % AD; urinary component, estimated % of the administered dose (% AD) ([3]; rat urine, PO dose 100 mg/kg): 0.02 % AD; % of the total radioactivity eliminated via urine within one hour ([3]; rat urine, PO dose, 1-h time point): 74.8%; % of the total urinary excretion by 6 h ([3]; rat urine, PO dose, 6 h): 6.6%
C[C@@]1(O)[C@H](O)[C@@H](CO)O[C@H]1n1cnc2c(=O)[nH]c(N)nc21 [2′-C-methyl guanosine, 9-(2-C-methyl-β-D-ribofuranosyl)guanine, reference compound]	–	–	18.0% of Dose	2.56% of Dose	0.06 % AD	56.2%	90.4%	0.02 % AD	56.2%	2.56 % AD	0.48 % AD	2.12%	1.79 % AD	35.1%	1.35 % AD	57.7%	14.4 % AD	86.7%	38.4%	18.0 % AD	Total excretion (% AD), urine ([3]; IV (1C)): 18.0 % AD; Total excretion (% AD), urine ([3]; PO (2C), urine data estimated): 2.56 % AD; % AD (percent of administered dose) [3, 12]: 0.004 % AD; % HPLC (percent of HPLC peak area in the sample extract) [3, 12]: 5.33%; % AD (percent of administered dose) [3, 17]: 0.24 % AD; % HPLC (percent of HPLC peak area in the sample extract) [3, 17]: 86.18%; % AD [3, 13]: 2.14 % AD; % HPLC (percent of HPLC peak area in the sample extract) [3, 13]: 92.1%; % AD, estimated [3, 14]: 0.001 % AD; % HPLC (percent of HPLC peak area in the sample extract) [3, 15]: 5.33%; % AD, estimated ([3]; estimated profile, group 2C (PO dose) urine, 6 h): 0.40 % AD; % HPLC (percent of HPLC peak area in the sample extract) ([3]; estimated profile, group 2C (PO dose) urine, 6 h, single animal % HPLC distribution): 86.18%; % AD (percent of administered dose) [3, 16]: 2.14 % AD; % HPLC (percent of HPLC peak area in the sample extract) [3, 16]: 92.1%; % of the total urinary excretion ([3]; rat urine, IV dose 50 mg/kg): 38.4%; urinary component, % of the administered dose (% AD) ([3]; rat urine, IV dose 50 mg/kg): 18 % AD; % of the total urinary excretion ([3]; rat urine, PO dose 100 mg/kg): 90.4%; urinary component, estimated % of the administered dose (% AD) ([3]; rat urine, PO dose 100 mg/kg): 2.6 % AD
